From US20020173538A1, “Method for sensitizing cancer cells to cancer therapies with a mevalonate-reducing compound” (priority 2000, published 2002)
Read-outs that look alike come from different tables or passages of the source.

Key:
[1] = system: cholesterol biosynthesis in Hep G2 cells; test: Cholesterol biosynthesis, incorporation of [2, ^3H]acetate into [^3H]cholesterol, Hep G2; type: cell-based, human; conditions: for inhibition at 10 µM / inhibition at 1 µM / inhibition at 5 µM / inhibition at 50 µM: Homo sapiens, read-out: percentage of inhibition of cholesterol biosynthesis
[2] = system: cholesterol biosynthesis in Hep 3B cells; test: Cholesterol biosynthesis, incorporation of [2, ^3H]acetate into [^3H]cholesterol, Hep 3B; type: cell-based, human; conditions: for inhibition at 10 µM / inhibition at 1 µM / inhibition at 5 µM / inhibition at 50 µM: Homo sapiens, Hep3B, read-out: percentage of inhibition of cholesterol biosynthesis
[3] = MTT cell viability assay, mouse hepatocytes (serum-free RPMI-1640); type: cell-based; conditions: BALB/c, isolated mouse hepatocytes
Hep 3B cells = test: Sub-G1 population and DNA fragmentation (apoptosis), Hep 3B; type: cell-based, human; conditions: compared with Hep G2 cells treated in the same condition (FIG. 12)

CC[C@H](C)C(=O)O[C@H]1C[C@@H](C)C=C2C=C[C@H](C)[C@H](CC[C@@H]3C[C@@H](O)CC(=O)O3)[C@H]21 [Lovastatin, lovastatin]
inhibition at 10 µM ([1]; HepG2, 2 h): 91.8% | inhibition at 10 µM ([1]; HepG2, 6 h): 94% | inhibition at 10 µM ([1]; HepG2, 12 h): 93.3% | inhibition at 1 µM ([1]; HepG2, 24 h): 50.7% | inhibition at 5 µM ([1]; HepG2, 24 h): 73.2% | inhibition at 10 µM ([1]; HepG2, 24 h): 87.2% | inhibition at 50 µM ([1]; HepG2, 24 h): 95.8% | inhibition at 1 µM ([1]; HepG2, 48 h): -15.3% | inhibition at 5 µM ([1]; HepG2, 48 h): 48.5% | inhibition at 10 µM ([1]; HepG2, 48 h): 69.4% | inhibition at 50 µM ([1]; HepG2, 48 h): 85.1% | [^3H]cholesterol ([1]; lovastatin 1 μM, 24 hr): 30.14 10^2 dpm/10^5 cells/hr | [^3H]cholesterol ([1]; lovastatin 1 μM, 48 hr): 70.43 10^2 dpm/10^5 cells/hr | [^3H]cholesterol ([1]; lovastatin 5 μM, 24 hr): 16.39 10^2 dpm/10^5 cells/hr | [^3H]cholesterol ([1]; lovastatin 5 μM, 48 hr): 31.46 10^2 dpm/10^5 cells/hr | [^3H]cholesterol ([1]; lovastatin 10 μM, 2 hr): 5.00 10^2 dpm/10^5 cells/hr | [^3H]cholesterol ([1]; lovastatin 10 μM, 6 hr): 3.67 10^2 dpm/10^5 cells/hr | [^3H]cholesterol ([1]; lovastatin 10 μM, 12 hr): 4.07 10^2 dpm/10^5 cells/hr | [^3H]cholesterol ([1]; lovastatin 10 μM, 24 hr): 7.83 10^2 dpm/10^5 cells/hr | [^3H]cholesterol ([1]; lovastatin 10 μM, 48 hr): 18.71 10^2 dpm/10^5 cells/hr | [^3H]cholesterol ([1]; lovastatin 50 μM, 24 hr): 2.54 10^2 dpm/10^5 cells/hr | [^3H]cholesterol ([1]; lovastatin 50 μM, 48 hr): 9.13 10^2 dpm/10^5 cells/hr | inhibition at 10 µM ([2]; 2 h): 94.1% | inhibition at 10 µM ([2]; 6 h): 92.4% | inhibition at 10 µM ([2]; 12 h): 89.5% | inhibition at 1 µM ([2]; 24 h): 50% | inhibition at 5 µM ([2]; 24 h): 85.4% | inhibition at 10 µM ([2]; 24 h): 91.4% | inhibition at 50 µM ([2]; 24 h): 95.1% | inhibition at 1 µM ([2]; 48 h): 68.2% | inhibition at 5 µM ([2]; 48 h): 86.2% | inhibition at 10 µM ([2]; 48 h): 94% | inhibition at 50 µM ([2]; 48 h): 95.5% | suppression of cholesterol synthesis ([2]; after prolonged treatment with lovastatin): > 90% | [^3H]cholesterol ([2]; lovastatin 1 μM, 24 hr): 29.84 10^2 dpm/10^5 cells/hr | [^3H]cholesterol ([2]; lovastatin 1 μM, 48 hr): 18.95 10^2 dpm/10^5 cells/hr | [^3H]cholesterol ([2]; lovastatin 5 μM, 24 hr): 8.69 10^2 dpm/10^5 cells/hr | [^3H]cholesterol ([2]; lovastatin 5 μM, 48 hr): 8.25 10^2 dpm/10^5 cells/hr | [^3H]cholesterol ([2]; lovastatin 10 μM, 2 hr): 3.54 10^2 dpm/10^5 cells/hr | [^3H]cholesterol ([2]; lovastatin 10 μM, 6 hr): 4.52 10^2 dpm/10^5 cells/hr | [^3H]cholesterol ([2]; lovastatin 10 μM, 12 hr): 6.25 10^2 dpm/10^5 cells/hr | [^3H]cholesterol ([2]; lovastatin 10 μM, 24 hr): 5.13 10^2 dpm/10^5 cells/hr | [^3H]cholesterol ([2]; lovastatin 10 μM, 48 hr): 3.59 10^2 dpm/10^5 cells/hr | [^3H]cholesterol ([2]; lovastatin 50 μM, 24 hr): 2.92 10^2 dpm/10^5 cells/hr | [^3H]cholesterol ([2]; lovastatin 50 μM, 48 hr): 2.71 10^2 dpm/10^5 cells/hr | viability at 72 h, 1 μM [3]: 91.9 ± 2.7% | viability at 72 h, 2 μM [3]: 85 ± 4.5% | viability at 72 h, 5 μM [3]: 84.7 ± 13.3% | viability at 72 h, 10 μM [3]: 80.4 ± 9.9% | viability at 72 h, 20 μM [3]: 74.9 ± 5.1% | viability at 72 h, 50 μM [3]: 39.1 ± 10.6% | Sub-G1 population and DNA fragmentation (markers of cell apoptosis) (Hep 3B cells): observed in a higher percentage and lower dose of lovastatin treatment than those in Hep G2 cells
